From publication PMC12227259, “PubChem BioAssays 1063: A Poorly Exploited Source of New Antileishmanial Compounds” (Journal of Parasitology Research, 2025)
Where two headings read alike, the source gives them in different places.

Key:
L. major promastigotes = experiment: Growth inhibition assay of promastigotes (pNPP); assay type: cell-based, L. major MHOM/IL/81/Friedlin; conditions: Leishmania major, read-out: Promastigotes (IC50 ± SD) L. major
Source text: (§1) Leishmania (Leishmania) amazonensis MHOM/BR/77/LTB0016 reference strain was kindly donated by the Department of Immunology of Fundação Oswaldo Cruz (Fiocruz), Brazil. Leishmania (Leishmania) mexicana MNYC/BZ/62/M379 and L. major MHOM/IL/81/Friedlin reference strains were kindly donated by Paul A. Bates, Division of Biomedical and Life Sciences, Faculty of Health and Medicine, Lancaster University, United Kingdom. Leishmania (Leishmania) infantum MHOM/FR/78/LEM75 was kindly donated by the Department of Parasitology, Faculty of Pharmacy, Universidad Complutense de Madrid, Spain. The promastigotes were cultivated at 26°C in Medium 199 (Gibco, Grand Island, NY, United States) supplemented with 10% heat-inactivated (56°C, 30 min) fetal bovine serum (Gibco, Grand Island, NY, United States) and antibiotics (200 IU penicillin and 200 μg/mL streptomycin). Exponential multiplication of the promastigotes of the four species was attained by passages every 3–4 days. L. mexicana axenic amastigotes were cultured in Schneider's Insect Medium (Sigma-Aldrich, St. Louis, MO, United States) at pH 5.4, supplemented with 20% heat-inactivated fetal bovine serum and antibiotics (as above).
(§2) The growth inhibition assay of promastigotes was conducted according to Bodley et al.'s procedure, with minor modifications. Briefly, 96-well culture plates were seeded with 100 μL culture medium 199 containing 5 × 10^5 log-phase promastigotes and 100 μL of twofold serial dilutions of the test compounds in culture medium. The plates were sealed with parafilm and incubated for 48 h at 26°C. Negative control wells contained promastigotes and DMSO at 0.5%, and positive wells contained promastigotes and 2.7 μM amphotericin B deoxycholate (Gibco, Grand Island, NY, United States). A series of amphotericin B concentrations was also tested in parallel to estimate its IC50 against promastigotes of the three Leishmania strains. After the incubation period, 30 μL of 3 mg/mL p-nitro-phenyl-phosphate (pNPP) (Sigma-Aldrich) in sodium acetate (pH 5.5, Sigma-Aldrich) and 1% Triton X-100 (Sigma-Aldrich) were added to each well. Plates were incubated for other 3 h at 37°C, and 50 μL 0.25 M NaOH (Sigma-Aldrich) was added to change all the produced p-nitro-phenol to its yellow-colored form. Absorbance was then read in a Biotek Epoch microplate reader (Agilent, Santa Clara, CA, United States) at 405 nm. Half-maximal inhibitory concentrations (IC50) were estimated by nonlinear fitting of absorbance versus compound concentration to the sigmoid Emax equation [18]. Each drug concentration was tested in quadruplicate, and the assay was repeated three times.

[1] = Cytotoxicity, alamar blue; assay type: cell-based, BALB/c mice; conditions: BALB/c, read-out: Cytotoxicity (CC50 ± SD)
Procedure: The cytotoxicity of the test compounds was assessed in primary cultures of mouse peritoneal macrophages as reported elsewhere, with minor modifications. Briefly, BALB/c mice were sacrificed by CO2 inhalation, and their peritoneal macrophages were collected by washing the abdominal cavity with cold RPMI 1640 (Gibco, Paisley, Scotland, United Kingdom) culture medium supplemented with antibiotics (sodium penicillin 200 IU and streptomycin 200 μg/mL) and 10% fetal bovine serum. The macrophages were distributed in 96-well culture plates at 10^5 cells/well. After 4 h incubation at 37°C and 5% CO2, the culture medium was replaced by fresh medium containing the test compounds, and the plates were incubated for another 48 h. Afterwards, 20 μL alamar blue (Thermo Fisher Scientific, Oregon, United States) was added per well. Incubation was continued for another 6–8 h at 37°C and 5% CO2 to measure the fluorescence of the reduced dye in a plate reader (excitation: 485 nm, emission: 590, scaling factor: 10/10, Fluoroskan Ascent FL 2.5 plate reader—Thermo Labsystems, Waltham, MA, United States). Fifty percent cytotoxic concentrations (CC50) were estimated by nonlinear fitting to the Emax sigmoid model. Each concentration was tested in triplicate, and each compound was tested in three independent studies.

[2] = test system: L. mexicana intracellular amastigotes; experiment: Intracellular amastigote transformation and proliferation assay; assay type: cell-based, Leishmania (Leishmania) mexicana; conditions: for IC50: Leishmania mexicana, Peritoneal macrophage, read-out: L. mexicana amastigotes (IC50 ± SD)
Source text: as §1
The activity of the test compounds against L. mexicana intracellular amastigotes was carried out by the transformation and proliferation assay as reported elsewhere. Briefly, mouse peritoneal macrophages were obtained by peritoneal lavage of BALB/c mice and cultivated in RPMI 1640 medium supplemented with fetal bovine serum and antibiotics as described above. The cells were seeded in 96-well culture plates at 10^5 cells/well (100 μL) and incubated at 37°C and 5% CO2 for 2 h. Then, macrophages were infected with L. mexicana axenic amastigotes at a rate of three parasites per host cell. After overnight incubation at 37°C and 5% CO2, noninternalized amastigotes and nonadhered macrophages were removed by the elimination of the culture medium and washing with phosphate buffer solution (PBS). Fresh RPMI 1640 medium containing serial dilutions of the test compounds was then added. Amphotericin B was tested in parallel at concentrations from 1.35 to 0.021 μM. Four replicates of each drug concentration were tested in every assay. Plates were incubated for 48 h at 37°C and 5% CO2.

[3] = test system: L. mexicana promastigotes; experiment: Growth inhibition assay of promastigotes (pNPP); assay type: cell-based, Leishmania (Leishmania) mexicana MNYC/BZ/62/M379; conditions: Leishmania mexicana, read-out: Promastigotes (IC50 ± SD) L. mexicana
Source text: as §1, §2

[4] = test system: L. infantum promastigotes; experiment: Growth inhibition assay of promastigotes (pNPP); assay type: cell-based, Leishmania (Leishmania) infantum MHOM/FR/78/LEM75; conditions: Leishmania infantum, read-out: Promastigotes (IC50 ± SD) L. infantum
Source text: as §1, §2

[5] = test system: L. amazonensis promastigotes; experiment: Growth inhibition assay of promastigotes (pNPP); assay type: cell-based, Leishmania (Leishmania) amazonensis MHOM/BR/77/LTB0016; conditions: Leishmania amazonensis, read-out: Promastigotes (IC50 ± SD) L. amazonensis
Source text: as §1, §2

L. mexicana = experiment: Mouse model of cutaneous leishmaniasis, intralesional treatment; assay type: in vivo, BALB/c mice; conditions: for lesion size versus amphotericin B–treated mice: at 21 days
Procedure: Female, 18–20 g, 8–10 weeks old BALB/c mice were supplied by the laboratory animal breeding facility of the Faculty of Medicine, National Autonomous University of México. They were maintained under controlled environmental conditions (room temperature 22°C–25°C, relative humidity 60%–65%, light cycle 12 h light–12 h dark) and were handled by qualified personnel. At the end of studies, mice were sacrificed by CO2 inhalation. The experimental protocol was approved by the Ethics in Research Committee and the Internal Committee on the Care and Use of Lab Animals (Code CICUAL 004-CIC-2019). All the experiments were conducted in accordance with the Mexican Regulation and the Institute of Laboratory Animal Research Guide for the care and use of laboratory animals.
Mice were infected by intradermal injection in the footpads with 10^7 stationary-phase L. mexicana promastigotes. Two weeks later, mice were randomly allocated in seven groups of 6–7 mice each. Four groups were treated intralesionally every 3 days (five doses) with 20 μL of any of the test compounds at 10 mg/mL in DMSO. […] The dorso-plantar thickness of the rear limbs was weekly measured from the beginning of treatment (14 days postinfection) to 2 weeks after the end of treatment. Feet were measured with a Vernier caliper, and lesion sizes were calculated by subtracting the value of the noninfected limb (left) to that of the infected one (right).
Two weeks after the end of treatment, mice were weighed, sacrificed by CO2 inhalation, and necropsied. The weights of the heart, liver, spleen, and left and right kidneys were determined. Both rear limbs were excised at the level of the tibiotarsal joint and weighed to calculate, by difference, the weight of the lesions. The number of parasites in the lesions was estimated by using the limiting dilution assay technique.

[6] = set-up: method as in PMID 6576723; conditions: subcutaneous route; cited from earlier work
Trypanosoma cruzi = test system: Trypanosoma cruzi; set-up: method as in PMID 27501246; conditions: in vitro and in vivo; cited from earlier work
[7] = test system: L. donovani axenic amastigotes; set-up: method as in PMID 27501246; conditions: cited from earlier work
Trypanosoma brucei = test system: Trypanosoma brucei; set-up: method as in PMID 27501246; conditions: in vitro and in vivo; cited from earlier work
Leishmania = conditions: cited from earlier work
[8] = primary mouse peritoneal macrophages
[9] = intracellular amastigotes in mouse peritoneal macrophages, 48 h, then 72 h transformation at 26°C
[10] = second mention, p = 0.0057 (Compound 5), p = 0.0030 (Compound 6)

| SMILES | IC50 (L. major promastigotes; 48 h at 26°C, pNPP readout) | CC50 at 48 h [1, 8] | IC50 [2, 9] | IC50 ([3]; 48 h at 26°C, pNPP readout) | IC50 ([4]; 48 h at 26°C, pNPP readout) | IC50 ([5]; 48 h at 26°C, pNPP readout) | other results |
| --- | --- | --- | --- | --- | --- | --- | --- |
| C[C@@H]1[C@H](O)[C@@H](C)/C=C/C=C/C=C/C=C/C=C/C=C/C=C/[C@H](O[C@@H]2O[C@H](C)[C@@H](O)[C@H](N)[C@@H]2O)C[C@@H]2O[C@](O)(C[C@@H](O)C[C@@H](O)[C@H](O)CC[C@@H](O)C[C@@H](O)CC(=O)O[C@H]1C)C[C@H](O)[C@H]2C(=O)O [AmB, amphotericin B deoxycholate, reference compound] | 0.031 ± 0.008 µM | 21 ± 2.1 µM | 0.48 ± 0.02 µM | 0.042 ± 0.019 µM | 0.031 ± 0.002 µM | 0.031 ± 0.007 µM | Selectivity index [2]: 44 |
| OC(COc1cccc2ccccc12)CN1CCCC1 (centres unmarked) [Compound 1] | 42.5 ± 7.2 µM | 125 ± 11 µM | 26.3 ± 8.2 µM | > 50 µM | 23.4 ± 9.2 µM | > 50 µM | Selectivity index ([2]; CC50/IC50 (in amastigotes)): 5 |
| CCN1CCN(C(=S)c2ccc(OC)cc2)CC1 [Compound 2] | > 50 µM | 127 ± 2.1 µM | > 50 µM | > 50 µM | > 50 µM | > 50 µM | – |
| COc1ccc2c(c1)sc(=N)n2C [Compound 3] | > 50 µM | > 257 µM | > 50 µM | > 50 µM | > 50 µM | 30.6 ± 11 µM | – |
| Nc1cnn(Cc2ccccc2F)c1 [Compound 4] | 11.3 ± 2.2 µM | 172 ± 6.9 µM | 8.9 ± 1.5 µM | 11.1 ± 8.2 µM | 23.1 ± 7.6 µM | 23.7 ± 9.9 µM | Selectivity index ([2]; CC50/IC50 (in amastigotes)): 19; number of parasites in lesions versus controls, distribution-free multiple comparison test (L. mexicana; limiting dilution, 2 weeks after the end of treatment, p = 0.0170): statistically significant differences |
| CC(C)OCCCn1c(=N)c(C(N)=S)cc2c(=O)n3ccccc3nc21 [Compound 5] | 9.9 ± 1.9 µM | 172 ± 7.9 µM | 1.1 ± 0.3 µM | 27.2 ± 6.2 µM | 13.8 ± 4.1 µM | 28.6 ± 14.3 µM | average lesion weight versus amphotericin B treated mice (L. mexicana; 2 weeks after the end of treatment, p = 0.023): statistically lower; lesion size versus amphotericin B–treated mice (L. mexicana; first mention, p = 0.0491): statistically smaller; lesion size versus amphotericin B–treated mice (L. mexicana; [10]): statistically smaller |
| CN1CCN(Cc2ccccc2Sc2ccccc2)CC1 [Compound 6] | 4.6 ± 2.3 µM | – | 5.9 ± 2.8 µM | 2.3 ± 0.54 µM | 2.7 ± 1 µM | 3 ± 0.42 µM | CC50 ([1]; mouse peritoneal macrophages, 48 h): 60.9 ± 10.7 µM; Selectivity index ([2]; CC50/IC50 (in amastigotes)): 10; lesion size versus amphotericin B–treated mice (L. mexicana; [10]): statistically smaller |
| O=C(Cn1cc([N+](=O)[O-])nc1[N+](=O)[O-])N1CCN(c2ccccc2)CC1 [Compound 7] | – | – | – | – | – | – | IC50 (L. major promastigotes; 48 h): 2.9 ± 0.56 µM; CC50 at 48 h ([1]; mouse peritoneal macrophages): 25.2 ± 1.9 µM; IC50 ([2]; in Mus musculus): 0.23 ± 0.04 µM; IC50 ([3]; 48 h): 0.76 ± 0.16 µM; IC50 ([4]; 48 h): 5.9 ± 1 µM; IC50 ([5]; 48 h): 1.2 ± 0.44 µM |
| C[S+](C)[O-] [DMSO, dimethyl sulfoxide] | – | – | – | – | – | – | 50% lethal single dose toxicity [6]: 13.9 to 20.5 g/kg |
| Cc1nc(C)c(C(=O)Nc2ccc(F)c(-c3nc4ncc(-c5ccccn5)cn4n3)c2)o1 [GNF 6702] | – | – | – | – | – | – | activity against Trypanosoma cruzi (Trypanosoma cruzi): active; increase in potency on optimization of hit GNF5343 [7]: 400 fold; activity against Trypanosoma brucei (Trypanosoma brucei): active |
| CCN(CC)C(=S)SSC(=S)N(CC)CC [disulfiram] | – | – | – | – | – | – | in vivo activity in an experimental model of cutaneous leishmaniasis (Leishmania): in vivo activity |
